Tests used:
[1] = Solubility in growth experiments (observation); assay type: physicochemical; settings: in growth medium; precluded OD600 nm as growth metric
Procedure: (§1) The growth of L. acidophilus NCFM was evaluated on twelve chemically diverse, nutritionally relevant and/or therapeutically active PGs 1; Table 1). FIG. 1A provides the structures and common sources of plant glycoside substrates described herein. The compounds that support growth of Lactobacillus acidophilus are in green. RI: β-D-Glcp; R2: Gentiobioside (β-D-Glcp-(1,6)-D-Glcp); R3: Rutinoside (α-L-Rhaf-(1,6)-D-Glcp). The graph in FIG. 1B depicts plant glycoside utilization analyzed by mass spectrometry and the growth as the maximum OD600. Due to the low solubility of polydatin, OD600 cannot be used as a growth metric and utilization of this compound is confirmed by the production of lactate as well as a high utilization level based on the metabolite analysis.

[2] = system: L. acidophilus NCFM; assay: Plant glycoside uptake and metabolite analysis of L. acidophilus NCFM culture supernatants by UHPLC-DAD-Q-TOF-MS; assay type: cell-based, Lactobacillus acidophilus
Procedure: (§2) For initial growth and gene expression studies, L. acidophilus NCFM was propagated three times in semi-defined medium (SDM) supplemented with either 1% or 0,5% (w/v) of the plant glycoside or carbohydrate (Table 1). For the RNA-seq analysis, cells were harvested by centrifugation (3,220×10 min, 25° C.) in the mid-exponential phase (OD600=0.6-0.8) and stored at −80° C. for subsequent RNA isolation. For the mass spectrometry metabolite analyses, 200 μt samples were taken at 0, 3, 6, 9, 12, and 24 hours of growth; cells were removed by centrifugation; and supernatants were stored at −80° C. for further analysis.
Analysis of plant glycoside uptake from L. acidophilus NCFM culture supernatants using mass spectrometry. The supernatants of L. acidophilus NCFM cultures grown on amygdalin, arbutin, esculin or salicin as carbon sources were analyzed during 24 hours by ultra-high performance liquid chromatography-diode array detection-quadruple time of flight mass spectrometry (UHPLC-DAD-Q-TOF-MS). Samples were diluted 1:20 (v/v) with methanol and an injection volume of […] was used. Separation was carried out on an Agilent Poroshell 120 phenyl-hexyl column (2.1×150 mm, 2.7 μm) using the Agilent Infinity 1290 UHPLC system (Agilent Technologies, Santa Clara, Calif., USA) equipped with a UV/vis spectrum diode array detector. Separation was performed at 0.35 mL min-1., 60° C. with a linear gradient consisting of water (A) and acetonitrile (B) both buffered with 20 mM formic acid, starting at 10% B and increased to 100% in 15 min where it was held for 2 min, returned to 10% in 0.1 min and kept for 3 min. MS detection was performed on an Agilent 6550 iFunnel QTOF MS equipped with Agilent Dual Jet Stream electrospray ion source with the drying gas temperature of 160° C. and gas flow of 13 L min^−1, whereas the sheath gas temperature was 300° C. and flow was 16 L min-1. Ionization was conducted in ESI-mode with capillary voltage set to 4000 V and nozzle voltage to 500 V. Mass spectra were recorded as centroid data for m/z 85-1700 in MS mode with an acquisition rate of 10 spectra s^−1. To avoid carry-over, the needle seat was back-flushed for 15 s at 4 mL min-1 with each of: i) isopropanol: 0.2% ammonium hydroxide (w/v) in water (1:1 v/v); ii) acetonitrile with 2% formic acid (w/v); iii) water with 2% formic acid. Data was processed with the Agilent Mass Hunter Qualitative Analysis B.07.00 software package (Agilent Technologies) and molar concentrations were obtained from standard curves of the plant glycosides and their main metabolites. Targeted compound searches were performed using lists of previously identified compounds plus standard chemical modifications.

[3] = system: L. acidophilus NCFM; assay: Growth of L. acidophilus NCFM on plant glycosides as single carbon source (OD600); assay type: cell-based, Lactobacillus acidophilus; settings: verified by production of lactate and metabolite analysis
Procedure: as §2
(§3) Phenotypic growth assays were performed using 1% (v/v) overnight cultures of L. acidophilus strains (Table 2) and other Lactobacillus species (Table 3) grown on SDM supplemented with 1% (w/v) glucose to inoculate 200 μL of SDM supplemented with 1% (w/v) of the examined carbohydrate (0.5% in the case of esculin) in 96-well microplate wells (Corning Costar, Corning, N.Y., USA) in duplicate or triplicate wells, respectively. The microplates were sealed with clear adhesive film, incubated at 37° C. in a Fluostar Optima microplate reader (BMG Labtech, Cary, N.C., USA), and the cell optical density (OD600) was monitored for 30 hours.
as §1

[4] = system: NCK2424 (ΔLBA0726); assay: Phenotypic growth analysis of deletion mutant (phospho-β-glucosidase); assay type: cell-based, Lactobacillus acidophilus; settings: compared with background Δupp strain
Procedure: as §3
Construction of gene deletion mutants. The L. acidophilus NCFM genes LBA0225 and LBA0726, both encoding P-Bgl of glycoside hydrolase family 1 (GH1) enzymes in addition to the LBA0227 and LBA0725 genes encoding an EIIC and an EIICBA components of two PTS systems, respectively, were deleted using the upp-based counterselectable gene replacement system. Briefly, in-frame deletions were constructed by amplifying 650-750 bp of the up- and downstream flanking regions of the deletion targets with two primer pairs (e.g., LBA0225A/LBA0225B and LBA0225C/LBA0225D; Table 4). The resulting purified products were joined by splicing using overlap extension PCR (SOE-PCR63) and amplified to establish the deletion alleles. The SOE-PCR products, that include flanking restriction enzyme sites, were cloned within the BamHI and SacI/EcoRI sites of the pTRK935 integration vector and transformed into E. coli EC101. […]
(§4) To establish the functional significance of these two loci, single deletions of each PTS EII and P-Bgl gene, and a double deletion of both P-Bgl genes were constructed using the upp-based counter-selectable gene replacement system (Table 2) and the growth phenotypes of the mutant strains were analyzed (FIG. 3). […]

[5] = system: NCK2418 (ΔLBA0227); assay: Phenotypic growth analysis of deletion mutant (PTS EIIC); assay type: cell-based, Lactobacillus acidophilus; settings: compared with background Δupp strain
Procedure: as §3
(§5) Construction of gene deletion mutants. The L. acidophilus NCFM genes LBA0225 and LBA0726, both encoding P-Bgl of glycoside hydrolase family 1 (GH1) enzymes in addition to the LBA0227 and LBA0725 genes encoding an EIIC and an EIICBA components of two PTS systems, respectively, were deleted using the upp-based counterselectable gene replacement system. Briefly, in-frame deletions were constructed by amplifying 650-750 bp of the up- and downstream flanking regions of the deletion targets with two primer pairs (e.g., LBA0225A/LBA0225B and LBA0225C/LBA0225D; Table 4). The resulting purified products were joined by splicing using overlap extension PCR (SOE-PCR63) and amplified to establish the deletion alleles. The SOE-PCR products, that include flanking restriction enzyme sites, were cloned within the BamHI and SacI/EcoRI sites of the pTRK935 integration vector and transformed into E. coli EC101. The resulting recombinant plasmids (pTRK1113-6) were confirmed by DNA sequencing and electroporated into L. acidophilus NCK1910 (Table 2) that contains the pTRK669 helper plasmid, and the recovery of the single- and double-crossover recombinants was performed as previously described. Recombinants carrying the new gene deletion alleles were isolated by colony PCR using primer pairs denoted up/down (e.g., LBA0225up/LBA0225down), which anneal to the flanking regions of the amplicons. Sequence integrity and in-frame deletions were verified by DNA sequencing employing the aforementioned primer pairs and primer denoted mid (e.g., LBA0225mid). The mutations were in-frame deletions of 90-96% of the coding regions.
as §4

[6] = system: NCK2422 (ΔLBA0725); assay: Phenotypic growth analysis of deletion mutant (PTS EIICBA); assay type: cell-based, Lactobacillus acidophilus
Procedure: as §3, §5
To establish the functional significance of these two loci, single deletions of each PTS EII and P-Bgl gene, and a double deletion of both P-Bgl genes were constructed using the upp-based counter-selectable gene replacement system (Table 2) and the growth phenotypes of the mutant strains were analyzed (FIG. 3). Phenotypic growth analyses of deletion mutants of EII PTS transporters (FIGS. 3A, 3C, 3E, 3G, and 3I) and phospho-β-glucosidase (FIGS. 3B, 3D, 3F, 3H, and 3J) on the β-glucosides esculin, salicin, amygdalin and the disaccharides gentiobiose and cellobiose. The background Aupp strain is shown as a grey fill graph and the growth of the mutant strains is shown as: PTS EIIC (LBA0227, pink triangle), the phospho-β-glucosidase (LBA0225, light blue triangles), the PTS EIICBA (LBA0725, yellow squares), the second phospho-β-glucosidase (LBA0726, lilac squares) and the double phospho-β-glucosidase mutant (LBA0225/LBA0726, black stars). The color scheme is consistent with that used for the gene loci in FIG. 2.

solubility [1] | Molecule | aglycone / main metabolite identified in culture supernatant ([2]; L. acidophilus NCFM growing on the glycoside, up to 24 h) | Catabolism based on MS ([2]; growth concentration 0.5% (w/v), qualitative: depletion of the plant glycoside and/or appearance of its metabolites) | growth on compound (OD600 not usable) [3] | growth of the ΔLBA0726 mutant (P-Bgl) [4] | growth of the ΔLBA0227 mutant (inactive EIIC) [5] | reduction of growth on inactivation of the EIICBA (LBA0725) [6] | growth of the ΔLBA0725 mutant (inactive PTS EIICBA) ([6]; compared with background Δupp strain)
poor solubility | OC[C@H]1O[C@@H](Oc2cc(O)cc(/C=C/c3ccc(O)cc3)c2)[C@H](O)[C@@H](O)[C@@H]1O [Polydatin] | resveratrol | Yes | verified by production of lactate and metabolite analysis |  |  |  | 
 | gentiobiose [reference compound] |  |  |  | unaffected | abolished | about 50% | moderately reduced

From patent US20200222474A1, “COMPOSITIONS AND METHODS FOR INCREASING PHYTOCHEMICAL BIOAVAILABLITY AND BIOACTIVITY” (North Carolina State University, priority 2017, published 2020)
